# Measured values from patent publication US12390498B2, “Treatment of clostridium difficile infection” (Vedanta Biosciences, Inc., priority 2016, dated 2025).
# What was measured:
# [1] = test system: Clostridium difficile infection (CDI); settings: cited from earlier work
# [2] = Short-chain fatty acid producing abilities of Composition F strains
Compound,treated patients experiencing CDI relapse ([1]; CDI patients) [%],preventing recurrent CDI ([1]; comparison with vancomycin),SCFAs (short chain fatty acids produced) [2]
CCc1c(Cl)c(O)c(Cl)c(O)c1C(=O)O[C@H]1[C@H](O)[C@H](OC)[C@H](OC/C2=C\C=C\C[C@H](O)/C(C)=C/[C@H](CC)[C@@H](O[C@@H]3OC(C)(C)[C@@H](OC(=O)C(C)C)[C@H](O)[C@@H]3O)/C(C)=C/C(C)=C/C[C@@H]([C@@H](C)O)OC2=O)O[C@@H]1C [fidaxomicin],14,superior to vancomycin,–
Bacteroides cellulosilyticus,–,–,"A, S"
